For 11 compounds, viability, T/C and IC50 results are on record in PubChem BioAssay AID2060348 (Molecular Pharmacology Branch, DTP, NCI, 2025).

Usually viability, T/C stands for the ratio of treated to control. As a reminder, the IC50 is the concentration that gives 50% inhibition.

Each structure is given as a SMILES string. Several values for one entry are separate records, joined by “and”; a condition that tells them apart may be missing. Equal values may be shown once.

For this assay, the system named is 885724-159-R-J1-PDC spheroids viability. The experiment in a line: Anticancer human tumor 885724-159-R-J1-PDC patient-derived pancreatic adenocarcinoma cell line growth inhibition [TAK]. Particulars: spheroids with HUVEC and MSC; for viability, T/C: stronger effect = lower value; for IC50: curve of compound. The text has this: Combinatorial screen of targeted agents with TAK-243 and ipatasertib in multi-cell type tumor spheroids
A high-throughput screen of multi-cell type tumor spheroids was designed to identify active combinations of targeted small molecules and TAK-243 or ipatasertib. Complex spheroids include a stromal component modeled by human endothelial cells (HUVEC) and fibroblasts modeled by human mesenchymal stem cells (MSCs). The concentration ranges selected for each drug and investigational agent were based upon clinically achievable concentrations if the clinical Cmax of the agent was known.
Compounds. The drugs and investigational agents: TAK-243 (785004), ipatasertib (767898), everolimus (733504), selumetinib (741078), bortezomib (756655), trametinib (758246), ixazomib (758254), vemurafenib (761431), dabrafenib (764134), sapanisertib (764658), alpelisib (765974), and copanlisib (816437), were obtained from the National Cancer Institute (NCI) Developmental Therapeutics Program Chemical Repository. The FDA-approved anticancer drug set is available from the NCI Developmental Therapeutics Program. […] The stock solutions were prepared in dimethyl sulfoxide (DMSO, Sigma-Aldrich, St. Louis, MO, cat. D2650) at 800-fold the tested concentration and stored at -70 degrees C prior to their use. All drugs and investigational agents were tested over a range starting from a high concentration at or near the clinical Cmax and decreasing in half-log increments. If the clinical Cmax for an agent had not been determined, the highest concentration tested was 10 microM.
NCI60 Cell Culture. NCI60 cell lines were obtained from the NCI Developmental Therapeutics Program Tumor Repository. For each lot of cells, the Repository performed Applied Biosystems AmpFLSTR Identifiler testing with PCR amplification to confirm consistency with the published Identifier STR profile for each cell line. Cells were kept in continuous culture for no more than 20 passages. The optimal seeding densities for each of the cell lines at each time point assessed were determined prior to performing the concentration response studies. Briefly, the NCI60 human tumor lines were grown as monolayers in RPMI 1640 medium supplemented with 10% FBS and 2 mmol/L L-glutamine.
An additional 2 lines were from the NCI60 cell line panel including melanomas, MALME-3M and SK-MEL-2. Pooled donor human umbilical vein endothelial cells (HUVEC, Lonza, cat. CC-2519) and human mesenchymal stem cells (hMSC, Lonza, cat. PT-2501) were purchased from Lonza (Walkersville, MD).
PDMR cell lines were grown in complete medium (DC medium): Dulbecco's modified Eagle's medium (DMEM)/F12 supplemented with 5% fetal bovine serum (FBS), 2 mM L-glutamine, 100 U/mL penicillin and 100 µg/ml streptomycin, 0.4 µg/ml hydrocortisone, 10 ng/ml epidermal growth factor (EGF) recombinant human protein, 24 µg/mL adenine, and 0.1 mg/mL primocin. During culture from frozen stock vials, PDMR cells were cultured in the same medium containing 10 µM Y-27632 (see Table 3). The PDCs were cultured in complete DMEM/F12 media without 10 microM Y-27632 dihydrochloride for at least two passages prior to the screen. The pooled donor HUVEC and hMSC were cultured in endothelial cell growth medium 2 (PromoCell, Heidelberg, Germany, cat. C-22011) and mesenchymal stem cell growth medium 2 (PromoCell, cat. C-28009), respectively. For all experiments, HUVEC and hMSC were used at passages </=5.
For the pre-screen, cell seeding densities were determined from a titration spanning the range from 5,000 to 313 cells per well. The mct-spheroids including 60% malignant cells, 25% HUVEC and 15% MSC dispensed as a mixture into U-bottom Ultra-Low Attachment 384-well plates (Corning, NY)
High-throughput Drug Combination Screening.
Prior to their inoculation into 384-well plates, malignant cells, HUVEC, and hMSC were removed from T flasks using TrypLE express (Thermo Fisher Scientific, cat. 12605036) and harvested by centrifugation for 5 min at 233 x g. […]
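Also: spheroids exposed to drugs for seven days.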

In the case of `CC(=O)Nc1cccc(-n2c(=O)n(C3CC3)c(=O)c3c(Nc4ccc(I)cc4F)n(C)c(=O)c(C)c32)c1`, the IC50 is 1.38 nM and 1.18 nM. For the same compound, the viability, T/C (compound 94.9 pM) was 89.3% and 117%. Moreover, the viability, T/C (compound 0.0003 µM) is 86.7% and 71.2%. In addition, the viability, T/C (compound 0.000949 µM) is 53.9% and 55.8%. Also, under “compound 0.003 µM”, the viability, T/C was 37.1% and 40.6%. Moreover, where the note is “compound 0.00949 µM”, the viability, T/C was 26.4% and 30.2%. In addition, under “compound 0.03 µM”, the viability, T/C is 20.4%.

For the compound `CC(C)(C)c1nc(-c2cccc(NS(=O)(=O)c3c(F)cccc3F)c2F)c(-c2ccnc(N)n2)s1`, the IC50 was above 10000 nM. In addition, where the note is “compound 0.0316 µM”, the viability, T/C is 179% and 172%. Also, the viability, T/C (compound 0.1 µM) is 262% and 233%. In addition, the viability, T/C (compound 0.316 µM) was 321% and 254%. Also, the viability, T/C (compound 1 µM) was 332% and 269%. Besides, the viability, T/C (compound 3.16 µM) was 308% and 241%. For the same compound, under “compound 10 µM”, the viability, T/C was 200% and 176%.

With `CC(C)CC(NC(=O)C(Cc1ccccc1)NC(=O)c1cnccn1)B(O)O` (stereo not given), the IC50 was 4.63 nM and 4.18 nM. Also, where the note is “compound 31.6 pM”, the viability, T/C is 114% and 102%. Further, the viability, T/C (compound 0.0001 µM) is 105% and 100%. Also, the viability, T/C (compound 0.000316 µM) is 104% and 93.8%. In addition, for the setting “compound 0.001 µM”, the viability, T/C is 99.3% and 87.3%. The viability, T/C (compound 0.00316 µM) is 74.5% and 67.2%. Moreover, where the note is “compound 0.01 µM”, the viability, T/C was 1.18% and 1.87%.

`CC(C)CC(NC(=O)CNC(=O)c1cc(Cl)ccc1Cl)B1OC(=O)CC(CC(=O)O)(C(=O)O)O1` (stereo not given): the IC50 was 19.1 nM and 18.8 nM. For the same compound, the viability, T/C (compound 0.000316 µM) was 98.6% and 104%. The viability, T/C (compound 0.001 µM) is 101% and 96.8%. Further, for the setting “compound 0.00316 µM”, the viability, T/C was 99.5% and 103%. Further, for the setting “compound 0.01 µM”, the viability, T/C was 89.3% and 91.4%. Moreover, the viability, T/C (compound 0.0316 µM) is 19.3% and 15.8%. For the same compound, where the note is “compound 0.1 µM”, the viability, T/C is 1.47% and 1.1%.

Regarding `CC(C)NCC(C(=O)N1CCN(c2ncnc3c2C(C)CC3O)CC1)c1ccc(Cl)cc1` (stereo not given), the viability, T/C (compound 0.3 µM) is 64.1% [middle of 10 runs]; the viability, T/C (compound 0.949 µM) is 60.5% [middle of 10 runs]; the viability, T/C (compound 3 µM) is 55.2% [middle of 10 runs]; the viability, T/C (compound 9.49 µM) is 47.5% [middle of 10 runs]; the viability, T/C (compound 30 µM) is 32.8% [middle of 10 runs].

On to `CC(C)n1nc(-c2ccc3oc(N)nc3c2)c2c(N)ncnc21`, for which the concentration for half-maximal inhibition (IC50) is 52.6 nM and 52.9 nM. For the same compound, the viability, T/C (compound 0.000316 µM) is 104% and 108%. Further, for the setting “compound 0.001 µM”, the viability, T/C is 103% and 95.1%. For the same compound, the viability, T/C (compound 0.00316 µM) is 93.3% and 83.8%. The viability, T/C (compound 0.01 µM) is 67.5% and 70.2%. Moreover, the viability, T/C (compound 0.0316 µM) was 54.2% and 51.1%. In addition, the viability, T/C (compound 0.1 µM) is 46.1% and 46%.

As for `CCCS(=O)(=O)Nc1ccc(F)c(C(=O)c2c[nH]c3ncc(-c4ccc(Cl)cc4)cc23)c1F`, the IC50 is above 100000 nM. For the same compound, the viability, T/C (compound 0.316 µM) is 145% and 137%. Also, under “compound 1 µM”, the viability, T/C is 179% and 154%. Under “compound 3.16 µM”, the viability, T/C is 187% and 177%. Further, where the note is “compound 10 µM”, the viability, T/C is 96.5% and 86.4%. Also, the viability, T/C (compound 31.6 µM) was 159% and 132%. Further, the viability, T/C (compound 100 µM) was 150% and 129%.

Consider `COC1CC2CCC(C)C(O)(O2)C(=O)C(=O)N2CCCCC2C(=O)OC(C(C)CC2CCC(OCCO)C(OC)C2)CC(=O)C(C)C=C(C)C(O)C(OC)C(=O)C(C)CC(C)C=CC=CC=C1C` (stereo not given), for which the IC50 is above 100 nM. For the setting “compound 0.000316 µM”, the viability, T/C was 93.8% and 110%. Also, the viability, T/C (compound 0.001 µM) was 91.7% and 92%. Moreover, for the setting “compound 0.00316 µM”, the viability, T/C was 79.7% and 77%. Besides, the viability, T/C (compound 0.01 µM) was 69.8% and 72.2%. Where the note is “compound 0.0316 µM”, the viability, T/C was 70.2% and 70.8%. Further, the viability, T/C (compound 0.1 µM) was 67.6% and 62.2%.

On to `COc1c(OCCCN2CCOCC2)ccc2c3n(c(=NC(=O)c4cnc(N)nc4)nc12)CCN3`, for which the IC50 is 26.7 nM and 23.3 nM. Under “compound 0.00316 µM”, the viability, T/C was 92.1% and 84.8%. The viability, T/C (compound 0.01 µM) was 69.9% and 64.1%. Besides, for the setting “compound 0.0316 µM”, the viability, T/C was 47.1% and 47.6%. Moreover, the viability, T/C (compound 0.1 µM) was 27.9% and 22.6%. Also, where the note is “compound 0.316 µM”, the viability, T/C is 14% and 13.8%. Moreover, the viability, T/C (compound 1 µM) was 12.1% and 12%.

Turning to `Cc1nc(NC(=O)N2CCCC2C(N)=O)sc1-c1ccnc(C(C)(C)C(F)(F)F)c1` (stereo not given), the IC50 is 1590 nM and 1990 nM. Moreover, the viability, T/C (compound 0.0316 µM) was 100% and 108%. The viability, T/C (compound 0.1 µM) was 91.1% and 88.8%. Moreover, where the note is “compound 0.316 µM”, the viability, T/C is 72.9% and 70.5%. For the setting “compound 1 µM”, the viability, T/C was 55.2% and 64.1%. In addition, the viability, T/C (compound 3.16 µM) was 42.3% and 43.4%. Besides, for the setting “compound 10 µM”, the viability, T/C is 26.8% and 29.2%.

As to `Cn1cnc2c(F)c(Nc3ccc(Br)cc3Cl)c(C(=O)NOCCO)cc21`, the IC50 was 40.9 nM. Moreover, the viability, T/C (compound 0.00949 µM) is 70.7% and 70.3%. In addition, the viability, T/C (compound 0.03 µM) is 53.1% and 54.5%. For the same compound, the viability, T/C (compound 0.0949 µM) is 38.9% and 38.3%. Also, the viability, T/C (compound 0.3 µM) was 34.6% and 32.9%. For the same compound, the viability, T/C (compound 0.949 µM) was 28.6% and 27.2%. Also, the viability, T/C (compound 3 µM) was 21.2% and 21.8%.
